Earlier results on two substances are cited in article PMC8982769 (Open Forum Infectious Diseases, 2022).

The conditions of series [1]: humans.
The conditions of series [2]: within 6 to 12 hours after IV administration.
For series [3] the following is noted: up to 24 grams of parenteral HPβCD daily for 15 days.
Series [4] concerns enterococci carrying vanA, vanB, and vanC genes. The note with it: in vitro.
For the next series, the system named is VRE. The note with it: within 48 to 72 hours.

A value given as a limit tells only on which side of the number the result lay.

As for 2-hydroxypropyl-β-cyclodextrin [HPβCD], the Elimination half-life in series [1] was 1.7 to 1.9 h. Besides, the “dose recovered in the urine” value in series [2] is listed as 100%. Besides, in series [3], the side effects entry is recorded as “no side effects were observed”.
Consider Oritavancin diphosphate, for which the MIC90 (in general, an inhibitory concentration at the 90% level, which refers to growth in some studies and to a panel of isolates in others) in series [4] was no more than 0.5 µg/mL. In addition, the log kill in the series with VRE is greater than 3 log.
